We go through 1 molecule from US20170298051A1, “ACTIVATOR OF ADIPONECTIN RECEPTOR” (THE UNIVERSITY OF TOKYO, priority 2013, published 2017).

Data set [1] relates to white adipose tissue (WAT). Description: White adipose tissue (WAT): inflammation and macrophage markers in mice fed a HF diet. Type of data set: in vivo. As to the method: Real-time PCR was carried out according to the method described previously^a,b,c. Total RNA was prepared from cells or tissues with Trizol (Invitrogen) according to the manufacturer's instructions. We used a real-time PCR method to quantify the mRNAs^19, with slight modifications.
Skeletal muscle homogenates were extracted, and tissue triglyceride content was determined as described previously^a-c, with some modifications. To investigate whether oxidative stress was increased, we measured lipid peroxidation, a marker of oxidative injury, as represented by plasma thiobarbituric acid reactive substance (TBARS) as described previously^4. Briefly, tissue samples were homogenized in a buffer solution containing 50 mM Tris-HCl (pH 7.4) and 1.15% KCl, and then centrifuged. The supernatant was used for the assay. The levels of lipid peroxidation in tissue homogenate and plasma were measured in terms of the amount of TBARS using the LPO test (Wako Pure Chemical Industries).

Data set [2] is described as follows: Measurement of plasma concentrations of AdipoRon. Type of data set: in vivo, C57BL/6 mice. The conditions noted are these: C57BL/6, mouse, C57B6 WT mice, oral 50 mg/kg, read-out: maximal concentration (Cmax) in plasma. As to the method:
We measured the plasma concentrations of AdipoRon by HPLC and TSQ Quantum Ultra (ThermoFisher) in C57BL/6 mice orally administered with 50 mg of AdipoRon per kg bodyweight. For quantitative analyses, 20 μl of plasma was mixed with acetonitrile. The mixture was mixed vigorously for 30 sec and then centrifuged at 10,000 rpm for 3 min at 4° C. An aliquot of the supernatant was injected into the quantitative LC/MS system. Quantitative analyses were performed using an Accela HPLC system (ThermoFisher). The liquid chromatographic separations were carried out by using syncronis C18, 150×2.1 mm, 3 μm. Column temperature was held at 40° C. The flow rate was 0.2 ml/min. Elution solvent A was 0.1% formic acid in water and solvent B was 0.1% formic acid in methanol. The chromatographic conditions were as follows: 0-5 min 45% A/55% B; 5-6.5 min 5% A/95%B, 6.5-10 min 45%A/55%B. A typical injection volume was 3 μl. Quantitative analyses were performed using a TSQ Quantum Ultra triple-stage quadrupole mass spectrometer. Electro-spray ionization in positive ion mode (ESI+) was used for ionization and selective reaction monitoring (SRM) mode was chosen for detection. The optimized precursor ions pairs were m/z 429.251→91.057 for AdipoRon. […]

For the next data set, the system named is mice fed with a HF diet. Description: Treadmill exercise endurance in mice fed a HF diet. The class given is in vivo. The procedure:
The treadmill exercise test regimen was 15 m/min for 20 min. Exercise endurance was assessed by dividing 20 min by the number of times a mouse was unable to avoid electrical shocks.

[3] abbreviates: Adipor1/r2 double-knockout mice fed with a HF diet.

Take `O=C(COc1ccc(C(=O)c2ccccc2)cc1)NC1CCN(Cc2ccccc2)CC1` [Compound 73, 2-(4-benzoyl-phenoxy)-N-(1-benzylpiperidin-4-yl)acetamide]: the “changes of macrophage markers in the WAT” value in data set [1] (Adipor1/r2 double-knockout mice) is listed as “these changes were not observed”. In data set [1] (setting [3]), the “expression levels of genes encoding pro-inflammatory cytokines in the WAT” value is listed as “such effect was not observed”. In addition, in data set [1] (WT mice fed with a HF diet), the “expression levels of genes encoding pro-inflammatory cytokines (Tnf, Il6, Ccl2) in the WAT” value is given as “reduced the expression levels”; the “levels of macrophage markers such as TBARS and F4/80 (Emr1), M1 marker CD11c (Itgax) in the WAT” value was “reduced the levels”; the “levels of markers for alternatively activated M2 macrophages such as CD206 (Mrc1) in the WAT” value is “not affect the levels”. Also, in data set [2], the Cmax is 11.8 µM. Further, in the data set with mice fed with a HF diet (setting [3]), the exercise endurance result is recorded as “but not in Adipor1/r2 double-knockout mice”. Besides, the exercise endurance entry in the data set on mice fed with a HF diet (WT mice fed with a HF diet) is reported as “significantly increased exercise endurance”.
